“Also recorded” adds a separate entry of the source.
How the values were obtained:
[1] = system: CMT-93 murine intestinal epithelial cells; experiment: HRF secretion into culture supernatant, western blot, CMT-93; type: cell-based, mouse; details: stimulated overnight, 20 or 100 ng/ml
Procedure: (§1) FIGS. 4A-4C show HRF is secreted by various cells. CMT-93 murine intestinal epithelial cells (FIG. 4A) and NIH/3T3 murine fibroblasts (FIG. 4B) and Raw264.7 murine macrophages (FIG. 4C) were stimulated overnight with low (20 ng/ml) and high (100 ng/mL) concentrations of various cytokines. HRF secreted into culture supernatants was detected by western blotting. Med and US denote medium only and supernatant from unstimulated cells, respectively. −DTT and +DTT indicate SDS gels were run under non-reducing and reducing conditions, respectively. Gel portions of containing the 23 kDa HRF monomer are shown except that a larger portion of the non-reducing gel is shown in panel C. Arrow indicates the position of HRF dimer, which disappeared under reducing conditions.
(§2) The following cell lines were cultured in DMEM plus 10% FCS except for U-937 cells which were cultured in RPMI1640 plus 10% FCS: CMT-93 mouse and Caco-2 (with 20% FCS) human intestinal epithelial cell lines; NIH/3T3 mouse fibroblast line; Raw 264.7 mouse and U-937 human macrophage lines; BEAS-2B human bronchial epithelial cell line; 293T human embryonic kidney cell line (obtained from ATCC, Manassas, Va., except for NIH/3T3, which was provided by S. A. Aaronson, NIH). Fibroblast-like stromal cells were cultured from small intestines of BALB/c mice in DMEM/10% FBS. CD4^+ T and B cells were purified from mouse spleens using BD IMag™ Mouse CD4 and B cells enrichment set-DM. Low-density bone-marrow cells were cultured in the presence of 100 ng/ml of stem cell factor (PeproTech) and 100 ng/ml of FLT-3 ligand (R&D Systems) for 4 days, and with 10 ng/mL of IL-5 (R&D Systems) thereafter for 10 days to obtain bone marrow-derived eosinophils (44). Bone marrow cells were cultured in the presence of 20 ng/ml of GM-CSF for 6 days and adherent cells were collected as bone marrow-derived macrophages. Non-adherent cells were further cultured with 5 ng/ml GM-CSF and the non-adherent cells were collected as bone marrow-derived dendritic cells. […]

[2] = system: Raw264.7 murine macrophages; experiment: HRF secretion into culture supernatant, western blot, macrophages; type: cell-based, mouse; details: stimulated overnight, 20 or 100 ng/ml
Procedure: as §1, §2

[3] = system: BEAS-2B human bronchial epithelial cells; experiment: HRF secretion, western blot, BEAS-2B; type: cell-based; details: combination of HDM and cytokine, 24 h
Excerpt: As lung epithelial cells are exposed to the environment, HRF secretion was studied using BEAS-2B human bronchial epithelial cells. A small amount of HRF was secreted constitutively, but house dust mite allergens induced the secretion of high-molecular-weight HRF species (HMW-HRFs). Various cytokines including epithelial derived cytokines as well as Th2 cytokines and proinflammatory cytokines further enhanced HDM-induced secretion of HMW-HRFs.
Cultured cells were scraped and treated with adenosine and ATP, which should be abundantly present in inflammatory or injured tissues. These conditions induced secretion of HRF monomer, dimer and HMW-HRFs like stimulation with HDM plus cytokines.
Culture supernatants were analyzed by SDS-PAGE under nonreducing (−DTT) and reducing (+DTT) conditions, followed by western blotting for HRF probing. HDM-induced HRF secretion was enhanced not only by Th2 cytokines (IL-4, IL-5, and IL-13), but also by epithelial derived cytokines (IL-25, IL-33, and TSLP) and proinflammatory cytokines (IL-1beta, IL-6 and TNF). med, medium alone; US, unstimulated; HDM, house dust mite; CR, cockroach; RW, ragweed; Af, Aspergillus fumigatus. Arrowhead, HRF monomer.

[4] = system: OVA-induced food allergy (allergic diarrhea); experiment: IgE-mediated experimental food allergy, i.g. pretreatment with HRF inhibitor before each OVA challenge; type: in vivo, mouse
Procedure: FIGS. 1A-1I show GST-N19 inhibits the development of diarrhea and intestinal mastocytosis in murine food allergy. Mice were i.p. sensitized with OVA ([…]) plus alum on days 0 and 14. From day 28, mice were i.g. challenged with OVA (50 mg) three times a week. Sensitized mice were either non-pretreated (−) or i.g. pretreated with 100 μg of GST or GST-N19 (N19). (FIG. 1A) Procedure scheme. (FIG. 1B) The development of diarrhea was monitored for 90 min after each OVA challenge. (n=5 for non-sensitized group, n=3 for inhibitor non-pretreated group, n=4 for GST group, n=6 for N19 group, data are representative of at least 3 independent experiments) Log-rank test: p=0.028 (GST vs. GST-N19), p=0.036 (control vs. GST-N19). […] (FIG. 1C-FIG. 1E) Total IgE, IgG1, HRF, and HRF-reactive IgE and IgG in sera were measured by ELISA. (FIG. 1F) Serum mMCP-1 was also measured by ELISA. (FIG. 1G) Sections of jejunum were stained with chloroacetate esterase to identify mast cells. Sections indicated by rectangles are enlarged in lower rows. Bar=100 μm in large pictures and 50 μm in insets. (FIG. 1H) Flow cytometry was performed to enumerate MMC9s (Lin^−c-Kit^+ST2^+IL-17RB^−Integrin β7^lo) in jejunum. (n=14 for non-sensitized group, n=15 for inhibitor non-pretreated group, n=9 for GST group, n=9 for GST-N19 group, pooled data of 3 independent experiments) (FIG. 1I) Cytokine mRNAs in jejunum were quantified by qRT-PCR. *, **: p<0.05, p<0.01 by ANOVA with Tukey's multiple comparison.
Mice were i.p. sensitized with OVA (50 μg/mouse) plus alum on days 0 and 14. From day 28, mice were i.g. challenged with OVA (25 or 50 mg) or PBS (control) three times a week. Before each challenge, mice were starved for 3 h, then i.g. pretreated with GST, GST-N19 (100 μg/mouse), synthetic N19 peptide, or HRF-2CA. The development of diarrhea was monitored for 90 min after OVA challenge. Diarrhea severity (30) was based on states of stool: solid (score 0), funicular (score 1), slurry (score 2), and watery (score 3).
For histologic analysis, jejunal tissue was fixed in 10% formalin. Mast cells in jejunal sections were detected by chloroacetate esterase staining. IgE, IgG, IgG1, IgG2a, mMCP-1, HRF, HRF-reactive IgE, and HRF-reactive IgG 24 h after the last OVA challenge were measured by ELISA (see Supplemental Information). Cytokine mRNAs in jejunum were quantified by qRT-PCR.
Twenty-four hours after the last OVA challenge, mice were sacrificed and small intestines (0.5-15 cm from stomach) were collected. The intestinal tissues were opened longitudinally and washed with HBSS. The washed tissues were incubated with 5 mM EDTA-HBSS for 30 min at 4° C., transferred to 30 ml HBSS in 50 ml tubes, and vigorously shaken to remove intestinal epithelial cells. The tissues were then washed with 10 ml of 10% FCS RPMI medium. Tissues were cut into tiny pieces and incubated with 2.4 mg/ml Collagenase D and 0.2 mg/ml DNase for 30 min at 37° C. Then cells were washed, resuspended in 44% Percoll solution, and slowly loaded on the top of 67% Percoll solution. The cells were centrifuged (1800 rpm, 20 min) and lymphocyte fractions were collected and used for detection of MMC9s (Lin^−c-Kit^+ST2^+IL-17RB^−Integrin β7^lo).
The cells were first incubated with 2.4G2 for 15 min at 4° C. and further incubated with Abs (PE-anti-07 integrin mAb (clone FIB504), PerCP/Cy5.5-anti-CD4 mAb (clone RM4-5), PerCP/Cy5.5-anti-CD8 mAb (clone 53-6.7), PerCP/Cy5.5-anti-CD11b mAb (clone M1/70), PerCP/Cy5.5-anti-CD11c mAb (clone N418), PerCP/Cy5.5-anti-B220 mAb (RA3-6B2), PerCP/Cy5.5-anti-Ly-6G/Ly-6C mAb (clone RB6-8C5), PerCP/Cy5.5-anti-CD335 mAb (clone 29A1.4), AlexaFluor647-anti-IL-17RB (clone 9B10), APC/Cy7-anti-CD117 (clone 2B8), Biotin-anti-ST2 (clone DIH9)) (Biolegend) for 30 min at 4° C. After washed, the cells were incubated with SA-BV421 (Biolegend) for 30 min at 4° C. MMC9 population was identified using FACS Canto. Data were analyzed using FlowJo software.

[5] = system: sensitization phase of murine food allergy; experiment: Pretreatment with HRF inhibitor before sensitization with OVA plus alum; type: in vivo, mouse; details: 100 μg i.g. one day before i.p. immunization on days 0 and 14
Procedure: Mice were i.g. pretreated with 100 μg of GST, GST-N19, HRF-2CA or PBS (OVA) one day before i.p. immunization with OVA plus alum on days 0 and 14. From day 28, mice were i.g. challenged with OVA three times a week. (FIG. 9A) Procedure scheme. (FIG. 9B) The development of diarrhea was monitored after OVA challenge. (n=5 for OVA, n=4 for GST, n=5 for N19, n=5 for 2CA, and n=3 each for unsensitized pretreated groups (not shown)). (FIG. 9C, FIG. 9D) Total IgE and IgG1 were measured by ELISA.
Whether HRF inhibitors affect the sensitization phase of food allergy was tested.

[6] = system: IgE+ mMCP-1+ mast cells; experiment: Localization of gavaged HRF inhibitors in jejunum by confocal microscopy; type: in vivo, mouse
Procedure: HRF multimers in the jejunum of non-sensitized/OVA challenged (Cont, n=6) or OVA-sensitized/OVA-challenged (OVA, n=5) mice were quantified by a newly developed ELISA (FIG. 3A, FIG. 3C). HRF was also measured by ELISA (FIG. 3B). HRF dimer and monomer were quantified by western blotting in control (Cont) and food allergic mice treated without (OVA) or with GST (GST) or GST-N19 (N19) (n=5 for each group) (FIG. 3D). Allergic diarrhea was induced by 6 challenges. On the day of 7th challenge, the mice were gavaged with 0.1 mg of GST or GST-N19 (FIG. 3E). One hour later, mice were sacrificed without OVA challenge. Jejunum tissues were stained for GST, IgE, and mMCP-1 before confocal microscopy (n=5 for GST and n=6 for GST-N19). Arrows indicate cells positive for GST or GST-N19 as well as IgE and mMCP-1. […] Bars=50 μm.
Jejunum biopsy was fixed in 4% paraformaldehyde at 4° C., washed in 10-20% sucrose in phosphate buffered saline, and embedded in O.C.T. compound (Sakura Finetek, Japan). Cyrosections were made in 6 μm and blocked with 2% skim milk. Immunostaining was performed with anti-HRF (rabbit polyclonal FL-172), anti-GST (rabbit polyclonal Z-5) (Santa Cruz Biotechnology), anti-IgE (clone RME-1 from Biolegend and clone R35-72 from BD Biosciences), anti-mMCP1 (Catalog #AF5146, R&D Systems), anti-CD45 (clone 30-F11), anti-CD63 (clone NVG-2) (Biolegend), and anti-Siglec F (clone E50-2440, BD Biosciences) as primary antibodies, and anti-Rabbit Alexa Fluor 647 (Catalog #A21245), anti-Rat Alexa Fluor 568 (Catalog #A11077), and anti-Sheep Alexa Fluor 555 (Catalog #A11015) (Thermo Fisher Scientific) as secondary antibodies. Coverslips were mounted with Prolong Gold with DAPI (Thermo Fisher Scientific) and fluorescence was observed under Leica TCS SP2 confocal microscopy (Leica) and Nuance Multi spectral Imaging System (PerkinElmer).
Applicant next tested whether HRF inhibitors target mucosal mast cells. To this end, mice with allergic diarrhea were i.g. gavaged with GST-N19 or GST, and their location was identified 1 h after their gavage.

[7] = target: anti-TNP IgE C38-2; experiment: cell-based or functional assay
[8] = sensitized mice pretreated i.g. with 100 μg before each OVA challenge

IL-6: proinflammatory cytokine
HRF secretion [1]: strongly induced
secretion of HRF monomer [2]: increased
HDM-induced HRF secretion [3]: enhanced

IL-13: Th2 cytokine
HRF secretion [1]: strongly induced
HRF dimer ([2]; non-reducing gel): increased
HDM-induced HRF secretion [3]: enhanced

GST-N19: GST-tagged N-terminal 19 amino acids of HRF; HRF inhibitor
serum mMCP-1 level ([4]; i.g. pretreatment before each OVA challenge, ELISA): reduced
number of mucosal mast cells in jejunum (intestinal mastocytosis) ([4]; i.g. pretreatment before each OVA challenge, chloroacetate esterase staining): inhibits; also recorded: reduced
MMC9s in jejunum ([4]; i.g. pretreatment, flow cytometry): reduced
Th2 cytokine mRNAs (Il4 and Il13) in jejunum ([4]; i.g. pretreatment, qRT-PCR): repressed
levels of total IgE, IgG1, IgG2a or HRF-reactive IgE and IgG ([4]; i.g. pretreatment, serum ELISA): not reduced
diarrhea occurrence / incidence [4, 8]: inhibits; also recorded: reduced
onset of diarrhea [4, 8]: delayed
sensitization phase of murine food allergy [5]: do not affect
targeting of mast cells in jejunum ([6]; after i.g. gavage): preferentially targets
IgE+ mMCP-1+ mast cells co-localized with the substance ([6]; mice with allergic diarrhea, 1 h after i.g. gavage of 0.1 mg, anti-GST staining): about 65%

B1: recombinant dimeric murine HRF (HRF-His6, Sephacryl fraction Fr1) (ligand)
chain: MIIYRDLISHDELFSDIYKIREIADGLCLEVEGKMVSRTEGAIDDSLIGGNASAEGPEGEGTESTVVTGVDIVMNHHLQETSFTKEAYKKYIKDYMKSLKGKLEEQKPERVKPFMTGAAEQIKHILANFNNYQFFIGENMNPDGMVALLDYREDGVTPFMIFFKDGLEMEKCHHHHHH
modifications: disulfide bond Cys172-Cys172 between the two monomers
EC50 of antigen TNP3-BSA for IL-13 release from C38-2-sensitized mouse BMMCs in the presence of 25 µg/ml mHRF dimer (156 ng/ml for 0 µg/ml mHRF dimer) [7]: 0.124 µg/mL
EC50 of antigen TNP3-BSA for IL-13 release from C38-2-sensitized mouse BMMCs in the presence of 50 µg/ml mHRF dimer (156 ng/ml for 0 µg/ml mHRF dimer) [7]: 0.092 µg/mL
